Assay results from article PMC12305662, “Fragment-Based Development of Small Molecule Inhibitors Targeting Mycobacterium tuberculosis Cholesterol Metabolism” (Journal of Medicinal Chemistry, 2025).
In brackets after ≈: the same amount, converted by molar mass. Several values for one entry are separate records, joined by “and”; a condition that tells them apart may be missing. Equal values may be shown once. Read-outs that look alike come from different tables or passages of the source.

Columns and labels:
[1] = target: T1, CYP125 (Mycobacterium tuberculosis, UniProt P9WPP1); experiment: biochemical; assay type: binding
T1 sequence (P9WPP1 whole entry): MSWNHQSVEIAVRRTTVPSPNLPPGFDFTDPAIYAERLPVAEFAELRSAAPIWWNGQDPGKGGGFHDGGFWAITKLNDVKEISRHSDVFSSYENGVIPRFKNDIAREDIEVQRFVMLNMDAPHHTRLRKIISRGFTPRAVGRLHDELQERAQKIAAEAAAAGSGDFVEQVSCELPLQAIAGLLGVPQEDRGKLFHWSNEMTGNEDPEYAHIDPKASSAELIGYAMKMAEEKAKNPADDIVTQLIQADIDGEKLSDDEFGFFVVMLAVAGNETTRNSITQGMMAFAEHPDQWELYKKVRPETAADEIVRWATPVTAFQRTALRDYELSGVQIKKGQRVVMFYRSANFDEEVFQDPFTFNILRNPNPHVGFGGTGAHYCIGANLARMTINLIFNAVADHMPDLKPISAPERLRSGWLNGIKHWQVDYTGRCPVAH

[2] = target: T1, CYP125; experiment: LC-MS substrate turnover assay (cholest-4-en-3-one); assay type: biochemical
[3] = test system: Mtb H37Rv; experiment: Extracellular Mtb growth on cholesterol, MABA MIC99; assay type: cell-based, Mycobacterium tuberculosis; details: Mycobacterium tuberculosis, H37RV
[4] = test system: Mtb H37Rv; experiment: Depletion of intracellular ATP (BacTiter Glo), Mtb on cholesterol; assay type: cell-based, Mycobacterium tuberculosis; details: 2 weeks post-compound treatment
[5] = test system: Mtb CDC1551; experiment: as above; assay type: cell-based; details: Mycobacterium tuberculosis, cholesterol as sole carbon source
[6] = test system: Mtb H37Rv pATB45luc in THP-1 macrophages; experiment: microbe, parasite or virus in culture; assay type: cell-based; details: Mycobacterium tuberculosis, 120 h, 5 days post-compound treatment, mean ± SD n = 2, read-out: intracellular growth Mtb IC50
[7] = test system: H37Rv Mtb; experiment: Extracellular Mtb growth, MABA MIC90 (drug susceptible strain); assay type: cell-based; details: Mycobacterium tuberculosis
[8] = test system: MDR-TB strain K26b00MR 113; experiment: microbe, parasite or virus in culture; assay type: cell-based, Mycobacterium tuberculosis; details: Mycobacterium tuberculosis, K26b00MR 113
[9] = test system: HepG2 cells; experiment: HepG2 cytotoxicity assay (CellTiter Glo ATP); assay type: cell-based; details: ATP (RLU)
Experimental: Compounds were tested against HepG2 cells for their ability to inhibit ATP production as a measure of cytotoxicity. HepG2 cells were cultured in DMEM supplemented with 10% (v/v) FBS, Hepes, L-glutamine and glucose or galactose. Compounds were serial diluted in microtiter plates (as described above) and HepG2 cells were added at a final concentration of 20,000 cells per well. Inhibition of ATP levels was noted by adding CellTiter Glo (Promega) reagent at a 1:10 dilution and luminescence was noted after 10 min incubation at room temperature.

[10] = test system: Mtb/iniB reporter (cell wall damage response); assay type: cell-based, Mycobacterium tuberculosis; details: 50–0.05 μM, days 1, 2, 4, 7
[11] = test system: Mtb/recA reporter (DNA damage response); assay type: cell-based, Mycobacterium tuberculosis; details: 50–0.05 μM, days 1, 2, 4, 7
[12] = test system: Mtb/radA reporter (DNA damage response); assay type: cell-based, Mycobacterium tuberculosis; details: 50–0.05 μM, days 1, 2, 4, 7
[13] = target: T2, CYP1A (Homo sapiens, UniProt P05177); experiment: Inhibition of human liver microsomal P450s; assay type: in vitro ADME
T2 construct: from tissue; host or cells: human liver microsomes
T2 sequence (P05177 2-516 limits assumed): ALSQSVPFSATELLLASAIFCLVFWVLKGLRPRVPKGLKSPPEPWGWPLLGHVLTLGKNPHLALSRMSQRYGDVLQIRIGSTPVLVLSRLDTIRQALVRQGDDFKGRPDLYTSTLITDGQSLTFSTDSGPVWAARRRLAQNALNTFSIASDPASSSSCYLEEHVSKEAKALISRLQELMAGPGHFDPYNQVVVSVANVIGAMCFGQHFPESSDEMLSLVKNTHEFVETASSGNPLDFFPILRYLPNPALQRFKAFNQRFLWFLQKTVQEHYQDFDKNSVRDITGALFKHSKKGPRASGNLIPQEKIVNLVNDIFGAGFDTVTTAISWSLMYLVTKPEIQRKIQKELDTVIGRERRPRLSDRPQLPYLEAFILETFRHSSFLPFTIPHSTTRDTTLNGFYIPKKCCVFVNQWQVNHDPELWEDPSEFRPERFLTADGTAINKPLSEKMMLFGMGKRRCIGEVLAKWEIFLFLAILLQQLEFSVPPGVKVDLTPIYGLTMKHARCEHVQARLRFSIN
Text: (§1) Table S8. Inhibition of human liver microsomal P450s. Inhibition constants (IC 50 values, µM) of
(§2) following substrates: CYP1A-ethoxyresorufin, CYP2C19- mephenytoin, CYP2C9-tolbutamide, CYP2D6-
(§3) dextromethorphan, CYP3A4-midazolam/testosterone.

[14] = target: T3, CYP2C19 (Homo sapiens, UniProt P33261); experiment: Inhibition of human liver microsomal P450s; assay type: in vitro ADME
T3 construct: from tissue; host or cells: human liver microsomes
T3 sequence (P33261 whole entry): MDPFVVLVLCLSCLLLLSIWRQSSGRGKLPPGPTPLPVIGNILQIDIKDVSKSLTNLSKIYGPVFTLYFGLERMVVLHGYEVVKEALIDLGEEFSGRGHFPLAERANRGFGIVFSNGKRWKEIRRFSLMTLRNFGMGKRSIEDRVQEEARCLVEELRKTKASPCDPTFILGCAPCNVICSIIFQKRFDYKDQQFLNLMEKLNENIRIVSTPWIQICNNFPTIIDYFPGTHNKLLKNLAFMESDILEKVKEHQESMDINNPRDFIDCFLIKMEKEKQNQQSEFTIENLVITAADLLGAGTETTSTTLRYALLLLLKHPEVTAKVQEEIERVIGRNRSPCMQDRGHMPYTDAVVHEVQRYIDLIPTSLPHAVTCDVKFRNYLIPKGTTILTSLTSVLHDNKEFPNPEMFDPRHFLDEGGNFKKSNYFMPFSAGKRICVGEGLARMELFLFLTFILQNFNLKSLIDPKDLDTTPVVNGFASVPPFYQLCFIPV
Text: as §1, §2, §3

[15] = target: T4, CYP2C9 (Homo sapiens, UniProt P11712); experiment: Inhibition of human liver microsomal P450s; assay type: in vitro ADME
T4 construct: from tissue; host or cells: human liver microsomes
T4 sequence (P11712 whole entry): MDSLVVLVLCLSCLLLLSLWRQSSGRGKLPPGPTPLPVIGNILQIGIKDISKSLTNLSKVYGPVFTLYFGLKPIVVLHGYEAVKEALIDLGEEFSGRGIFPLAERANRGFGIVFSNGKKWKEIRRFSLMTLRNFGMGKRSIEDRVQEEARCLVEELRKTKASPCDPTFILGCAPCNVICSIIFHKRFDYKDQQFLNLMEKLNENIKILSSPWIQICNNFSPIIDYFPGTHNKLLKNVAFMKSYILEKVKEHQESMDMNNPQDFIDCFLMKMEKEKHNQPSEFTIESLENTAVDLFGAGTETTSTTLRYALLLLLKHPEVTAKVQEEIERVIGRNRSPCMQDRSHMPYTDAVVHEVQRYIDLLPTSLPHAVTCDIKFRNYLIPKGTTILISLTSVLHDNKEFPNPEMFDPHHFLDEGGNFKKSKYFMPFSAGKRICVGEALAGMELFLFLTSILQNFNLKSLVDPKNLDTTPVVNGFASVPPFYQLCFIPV
Text: as §1, §2, §3

[16] = target: T5, CYP2D6 (Homo sapiens, UniProt P10635); experiment: Inhibition of human liver microsomal P450s; assay type: in vitro ADME
T5 construct: from tissue; host or cells: human liver microsomes
T5 sequence (P10635 whole entry): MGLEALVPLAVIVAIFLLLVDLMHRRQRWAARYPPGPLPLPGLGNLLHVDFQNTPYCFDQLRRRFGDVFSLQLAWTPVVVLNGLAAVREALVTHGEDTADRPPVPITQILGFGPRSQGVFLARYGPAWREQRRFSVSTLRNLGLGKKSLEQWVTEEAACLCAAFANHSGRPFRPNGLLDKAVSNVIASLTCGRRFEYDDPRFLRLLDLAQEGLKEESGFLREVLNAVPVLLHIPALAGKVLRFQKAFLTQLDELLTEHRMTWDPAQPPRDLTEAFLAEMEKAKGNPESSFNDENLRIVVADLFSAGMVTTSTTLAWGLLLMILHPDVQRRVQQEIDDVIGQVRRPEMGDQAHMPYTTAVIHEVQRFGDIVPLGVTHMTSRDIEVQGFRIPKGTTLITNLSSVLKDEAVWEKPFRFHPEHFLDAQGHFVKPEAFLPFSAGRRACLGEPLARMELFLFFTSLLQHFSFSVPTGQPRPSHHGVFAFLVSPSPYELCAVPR
Text: as §1, §2, §3

[17] = target: T6, CYP3A4 (Homo sapiens, UniProt P08684); experiment: Inhibition of human liver microsomal P450s; assay type: in vitro ADME
T6 construct: from tissue; host or cells: human liver microsomes
T6 sequence (P08684 whole entry): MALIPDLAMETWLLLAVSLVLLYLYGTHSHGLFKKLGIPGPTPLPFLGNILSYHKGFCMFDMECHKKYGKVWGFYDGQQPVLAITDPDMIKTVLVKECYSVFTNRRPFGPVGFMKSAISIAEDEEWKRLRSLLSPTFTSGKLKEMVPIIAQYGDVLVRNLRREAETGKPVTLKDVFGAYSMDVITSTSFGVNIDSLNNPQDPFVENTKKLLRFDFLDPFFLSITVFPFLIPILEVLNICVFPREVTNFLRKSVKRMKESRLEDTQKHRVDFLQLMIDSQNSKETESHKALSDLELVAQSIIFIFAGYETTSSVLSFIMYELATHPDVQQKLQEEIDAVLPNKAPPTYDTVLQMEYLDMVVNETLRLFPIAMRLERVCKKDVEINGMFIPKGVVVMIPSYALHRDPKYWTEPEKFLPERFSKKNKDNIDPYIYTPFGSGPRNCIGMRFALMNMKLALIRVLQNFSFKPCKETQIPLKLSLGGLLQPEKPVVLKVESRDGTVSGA
Text: as §1, §2, §3

[18] = target: CYP142 (Mycobacterium tuberculosis, UniProt P9WPL5)
CYP142, sequence (P9WPL5 whole entry): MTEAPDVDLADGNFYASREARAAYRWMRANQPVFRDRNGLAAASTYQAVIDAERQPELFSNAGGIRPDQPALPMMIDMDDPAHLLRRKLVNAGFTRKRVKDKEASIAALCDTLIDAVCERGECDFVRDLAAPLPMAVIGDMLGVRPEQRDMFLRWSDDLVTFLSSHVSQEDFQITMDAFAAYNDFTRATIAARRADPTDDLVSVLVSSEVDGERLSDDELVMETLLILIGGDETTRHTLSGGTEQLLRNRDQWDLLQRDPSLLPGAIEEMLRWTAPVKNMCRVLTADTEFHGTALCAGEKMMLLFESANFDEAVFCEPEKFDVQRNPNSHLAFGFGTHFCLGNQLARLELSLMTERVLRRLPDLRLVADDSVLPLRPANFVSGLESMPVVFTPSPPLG

[19] = test system: uninfected THP-1 macrophages; experiment: THP-1 cytotoxicity (ATPLite); details: concentrations up to 50 μM
[20] = test system: Mtb CDC1551; experiment: Depletion of intracellular ATP, Mtb on glucose; details: read-out: ATP IC50 (W1) CDC1551, glucose media; glucose as sole carbon source; 1 week
Experimental: (Mtb) H37Rv or CDC1551 strains were grown in Middlebrook 7H9 broth medium (Difco) supplemented with 0.3 g/L casitone, 0.81 g/L NaCl, 0.05% (v/v) tyloxapol, and either 97 mg/L cholesterol, 4 g/L glucose, or 0.2% glycerol. For inhibitor assays, a 10-fold serial dilution of the test compounds was made in the desired medium in duplicate rows of a 96-well plate. Mtb cells were then added to all the wells at the final concentration of 1 × 10^4 CFU, and plates were incubated at 37 °C for up to 15 days. Minimum inhibitory concentrations (MIC99) were determined using the Microplate Alamar Blue Assay (MABA) on day 15.
BacTiter Glo reagent (Promega) was added to microtiter plates (1:10 dilution) and luminescence was recorded after 15 min of incubation at room temperature. […] Isoniazid or p-amino salicylic acid were used as positive control compounds for all experiments. Reported MIC and IC50 values are the mean of duplicate treatments.

[21] = proportion of binding affinity attributed to the 1a-ii hotspot

COc1ccc(CNc2ccc(Cc3ccncc3)cc2)cc1 [5m, N-(4-Methoxybenzyl)-4-(pyridin-4-ylmethyl)aniline]
improvement in binding affinity KD 1a/5m, CYP125 [1]: > 1000 fold
ligand efficiency (LE) [1]: > 0.4
group efficiency (GE) of the benzylamine ([1]; CYP125 and CYP142): 0.20–0.50
Kd ([1]; KD, dual CYP125/142 ligand): 0.04 to 0.16 µM and ~0.1 µM
ΔΔG [5m-1a], CYP125 [1, 21]: 0.5
Kd ([1]; read-out: KD (μM) CYP125): 0.04 ± 0.021 µM
IC50 ([2]; CYP125 0.5 μM, cholest-4-en-3-one 5 µM, LC-MS, read-out: CYP125A1 IC50): 0.35 ± 0.04 µM
Ki ([2]; estimated by Cheng-Prusoff, cholest-4-en-3-one Km CYP125 = 2.1 µM, read-out: CYP125A1 KI): < 1 µM and 0.1 µM
Ki ([2]; one bound given for both enzymes, read-out: KI, enzyme activity in vitro (CYP125/142)): < 0.1 µM
Ki ([2]; one range given for both enzymes, read-out: KI, catalytic activity in vitro (CYP125/142)): 0.05 to 0.1 µM
MIC99 ([3]; 336 h, cholesterol as sole carbon source, 2 weeks post-compound treatment, read-out: MABA-MIC99 (W2) H37Rv, cholesterol): 1.5 µM
MIC99 ([3]; 336 h, cholesterol as sole carbon source, 2 weeks, conversion of 1.5 μM, read-out: MIC99 H37Rv, cholesterol): ~0.46 µg/mL
MIC99 ([3]; read-out: MIC99, growth of Mtb in extracellular assays): 0.4 to 1.5 µM
IC50 ([4]; Mycobacterium tuberculosis, H37RV, 336 h, H37Rv, bovine serum albumin, read-out: ATP IC50 (W2), cholesterol media with BSA): 2.3 µM
IC50 ([4]; Mycobacterium tuberculosis, H37RV, 336 h, H37Rv, casitone, read-out: ATP IC50 (W2), cholesterol media with casitone): 1.5 µM
IC50 ([4]; Mycobacterium tuberculosis, H37RV, 336 h, cholesterol as sole carbon source, read-out: ATP-IC50 (W2) H37Rv, cholesterol): 1.2 µM
IC50 ([4]; cholesterol as sole carbon source, read-out: ATP-IC50 (W2) H37Rv, cholesterol): 1.1 µM
IC50 ([5]; CDC1551, 168 h, 1 week post-compound treatment, read-out: ATP-IC50 (W1) CDC1551, cholesterol): 0.59 µM
IC50 ([5]; CDC1551, 336 h, 2 weeks post-compound treatment, read-out: ATP-IC50 (W2) CDC1551, cholesterol): 9.4 µM
IC50 [6]: 1.7 ± 0.18 µM
MIC90 ([7]; 168 h, read-out: MIC90 (W1) H37Rv): 0.78 µM (≈ 0.237 µg/mL)
MIC90 ([7]; 336 h, MABA 2 weeks post-compound treatment, read-out: MIC90 (W2) H37Rv): 6.25 µM (≈ 1.9 µg/mL)
MIC90 ([8]; 168 h, read-out: MIC90 (W1) MDR-TB, MABA 1 week post-compound treatment): 0.39 µM (≈ 0.119 µg/mL)
MIC90 ([8]; 336 h, read-out: MIC90 (W2) MDR-TB, MABA 2 weeks post-compound treatment): 12.5 µM (≈ 3.8 µg/mL)
HepG2 LD50 / IC50, galactose media ([9]; galactose-containing media, mean ± SD n = 2): 3.2 µM
HepG2 LD50 / IC50, glucose media ([9]; standard (glucose-containing) media): > 50 µM
upregulation of iniB reporter [10]: did not induce the upregulation
upregulation of recA reporter [11]: did not induce the upregulation
upregulation of radA reporter [12]: did not induce the upregulation
IC50 [13]: 0.82 µM
IC50 [14]: 0.44 µM
IC50 [15]: 1.86 µM
IC50 [16]: 0.33 µM
IC50 ([17]; CYP3A4 IC50 (midazolam), substrate midazolam (first value of cell)): 0.52 µM
IC50 ([17]; CYP3A4 IC50 (testosterone), substrate testosterone (second value of cell)): 1.82 µM
Kd [18]: 0.08 µM
ΔΔG [5m-1a], CYP142 [18, 21]: 0.2
THP-1 cytotoxicity in words [19]: no effect on THP-1 cell viability
IC50 [20]: 4.7 µM
